In the experiment the target is T1, C-C chemokine receptor type 1 (Homo sapiens, UniProt P32246).
T1 sequence (P32246 whole entry): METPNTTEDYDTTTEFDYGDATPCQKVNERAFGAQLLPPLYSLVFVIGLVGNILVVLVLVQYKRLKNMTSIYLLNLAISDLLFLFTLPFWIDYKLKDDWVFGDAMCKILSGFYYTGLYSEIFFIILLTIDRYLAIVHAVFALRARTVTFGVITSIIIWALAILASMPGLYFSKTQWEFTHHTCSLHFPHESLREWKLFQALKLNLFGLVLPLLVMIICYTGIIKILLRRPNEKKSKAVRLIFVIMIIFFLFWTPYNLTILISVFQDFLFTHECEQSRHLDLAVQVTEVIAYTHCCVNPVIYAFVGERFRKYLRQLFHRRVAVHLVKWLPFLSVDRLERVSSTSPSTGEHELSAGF
Nature of the experiment: Inhibition of [125I]-MIP-1 alpha binding to recombinant human C-C chemokine receptor type 1 expressed in HEK293 cells. The format is cell-based.

As a reminder, the Ki is the equilibrium dissociation constant of an inhibitor or competing ligand from its target. In the case of `C[N+]1(CCCC(C#N)(c2ccccc2)c2ccccc2)CCC(O)(c2ccc(Cl)cc2)CC1` (stereo not given), the Ki was 8 nM.
The figure for `N#CC(CCCN1CCC(O)(c2ccc(Cl)cc2)CC1)(c1ccccc1)C1CCCCC1` (stereo not given) is 400 nM; for `N#CC(CCCN1CCC(O)(c2ccc(Cl)cc2)CC1)c1ccc(Cl)cc1` (stereo not given) it is 463 nM.
The figure for `N#CC1(CCCN2CCC(O)(c3ccccc3)CC2)c2ccccc2CSc2ccccc21` (stereo not given) is 203 nM; for `N#CC(CCCN1CCC(O)(c2ccc(Cl)cc2)CC1)c1cccc([N+](=O)[O-])c1` (stereo not given) it is 510 nM; for `COC(=O)C(C#N)(CCCN1CCC(O)(c2ccc(Cl)cc2)CC1)c1ccccc1` (stereo not given) it is 53 nM.
For `CCCCC1(O)CCN(CCCC(C#N)(c2ccccc2)c2ccccc2)CC1` the value was 4010 nM.
Regarding `CCC(C#N)(CCCN1CCC(O)(c2ccc(Cl)cc2)CC1)c1ccccc1` (stereo not given), the Ki came to 93 nM.
The figure for `N#CC(CCCN1CCC(O)(c2ccc(Cl)cc2)CC1)c1ccccn1` (stereo not given) is 584 nM.
For `N#CC(CCCN1CCC(O)(c2ccc(Cl)cc2)CC1)c1ccccc1F` (stereo not given) the value was 371 nM; for `COc1cc(C(C#N)CCCN2CCC(O)(c3ccc(Cl)cc3)CC2)cc(OC)c1OC` (stereo not given), 497 nM; for `N#CC(CCCN1CCC(O)(c2ccc(C(F)(F)F)cc2)CC1)(c1ccccc1)c1ccccc1`, 153 nM.
The figure for `N#CC(CCCN1CCC(O)(c2ccc(Cl)cc2)CC1)c1ccc(F)cc1` (stereo not given) is 533 nM; for `CCOc1ccc(C(C#N)CCCN2CCC(O)(c3ccc(Cl)cc3)CC2)cc1` (stereo not given) it is 1420 nM.
Regarding `COc1ccc(C(C#N)CCCN2CCC(O)(c3ccc(Cl)cc3)CC2)cc1` (stereo not given), the Ki worked out at 359 nM.
The figure for `N#CC(CCCN1CCC(O)(c2ccc(Cl)cc2)CC1)c1ccccc1Cl` (stereo not given) is 306 nM.
The figure for `N#CC1(CCCN2CCC(O)(c3ccc(Cl)cc3)CC2)c2ccccc2Oc2ccccc21` is 234 nM.
The figure for `N#CC(CCCN1CCC(O)(c2ccc(Cl)cc2)CC1)c1c(F)c(F)c(F)c(F)c1F` (stereo not given) is 330 nM.
With `Cc1ccccc1C1(O)CCN(CCCC2(C#N)c3ccccc3CSc3ccccc32)CC1` (stereo not given), the Ki came to 164 nM.
For `N#CC(CCCN1CCC(O)(c2cccc(Cl)c2)CC1)(c1ccccc1)c1ccccc1` the value was 385 nM; for `N#CC1(CCCN2CCC(O)(c3ccc(Cl)cc3)CC2)c2ccccc2C[S+]([O-])c2ccccc21` (stereo in doubt; 6q), 71 nM.
The figure for `N#CC(CCCN1CCC(O)(c2ccc(Cl)cc2)CC1)c1ccc(O)cc1` (stereo not given) is 975 nM; for `N#CC1(CCCN2CCC(O)(c3ccc(Br)cc3)CC2)c2ccccc2CSc2ccccc21` (stereo not given) it is 22 nM; for `N#CC1(CCCN2CCC(O)(c3ccc(Cl)cc3)CC2)c2ccccc2C[S+]([O-])c2ccccc21` (stereo in doubt; 6p) it is 54 nM.
For `N#CC1(CCCN2CCC(O)(Cc3ccccc3)CC2)c2ccccc2CSc2ccccc21` (stereo not given) the value was 405 nM; for `O=C(NCC(CCCN1CCC(O)(c2ccc(Cl)cc2)CC1)(c1ccccc1)c1ccccc1)NC1CCNCC1`, 9 nM.
With `N#CC(CCCN1CCC(O)(c2ccccn2)CC1)(c1ccccc1)c1ccccc1`, the Ki stood at 906 nM.
The figure for `N#CC(CCCN1CCC(O)(c2ccc(I)cc2)CC1)(c1ccccc1)c1ccccc1` is 233 nM; for `N#CC(CCCN1CCC(O)(c2ccc(Cl)cc2)CC1)c1ccccc1O` (stereo not given) it is 790 nM; for `N#CC(CCCN1CCC(O)(c2ccc3ccccc3c2)CC1)(c1ccccc1)c1ccccc1` it is 715 nM.
The figure for `NCC(CCCN1CCC(O)(c2ccc(Cl)cc2)CC1)(c1ccccc1)c1ccccc1` is 244 nM.
The figure for `N#CC1(CCCN2CCC(O)(c3cccc(C(F)(F)F)c3)CC2)c2ccccc2CSc2ccccc21` (stereo not given) is 623 nM.
Take `N#CC(CCCN1CCC(O)(c2ccc(Cl)cc2)CC1)c1cccnc1` (stereo not given): the Ki came out at 1000 nM.
Consider `N#CC(CCCN1CCC(O)(c2cc(Cl)cc(Cl)c2)CC1)(c1ccccc1)c1ccccc1`, for which the Ki stood at 1330 nM.
For `COC(=O)C(CCCN1CCC(O)(c2ccc(Cl)cc2)CC1)(c1ccccc1)c1ccccc1` the value was 406 nM.
